# From patent US3979508A, “Compositions and methods therewith for penicillin hypersensitivity detection” (Kremers-Urban Company, priority 1975, dated 1976)
# Several values for one entry are separate records, joined by “and”; a condition that tells them apart may be missing. Equal values may be shown once.
# Test system: penicillin hypersensitivity (patients)
# Experiment: Clinical evaluation by 26 investigators: scratch/intradermal skin tests with PPL and Penicillin G (Tables IV-VII, IX-XI)
# Type: in vivo, human
# Conditions: for TOTAL (+) No. / TOTAL (+) Percent of total positive: skin reactive penicillin allergy patients
# Protocol: Twenty-six clinical investigators contributed a total of 1160 cases to the evaluation. Patients were tested according to a protocol as follows:
# 1. All patients being subjected to allergy investigation were to be tested for penicillin hypersensitivity. Two preparations were to be used. These are:
# 2. Penicillin G (Benzyl Penicillin) in a concentration of 10,000 units per cc.
# For maximum safety, it was recommended that the tests first be done by the scratch technique. Intradermal tests were then to be done on those showing negative scratch tests. In cases where the penicillin sensitivity was suspected to be of a violent character, more dilute reagents were recommended at the discretion of the individual investigator.
# A uniform technique was recommended for the performance of the intradermal tests. Only a minimal amount of testing reagent was to be injected so as to make a barely discernible intradermal bleb. The amount necessary for this injection is about 0.01 to 0.03 cc. It was recognized that the intrepretation of the test results is an important matter. The reactions were to be recorded in terms of (1) the time required for the appearance of a reaction, (2) the size of erythema and (3) the size of whealing. These were to be recorded as actual measurements. Some objective measurement of dermographism was also to be recorded.
# It was also contemplated that all patients who were to be treated with penicillin be tested as recommended above, even though they had previously received penicillin with impunity.
# A comprehensive clinical history was takan on each patient with particular regard to previous penicillin therapy, and reaction.
# In order to properly analyze the data on such a large number of patients, a data processing system was utilized.
# Table IV summarizes the skin test results on all patients, without regard to other specific factors. […] It will also be noted that a significant number of patients reacted only to PPL, and another group only to Pen G. Therefore, to detect the maximum number of reactors, both test reagents would be required. A technical problem was classification of the ambiguous or borderline reactors, particularly those showing only erythema. Attempts to correlate the appearance of the erythematous flare without wheal formation with a history of penicillin hypersensitivity were unsuccessful. In some instances, however, erythema without wheal did appear to be associated with hypersensitivity to the antibiotic. The time of development of erythema without wheal varied widely from a few minutes to more than 7 days which also made its importance questionable. as a diagnostic sign. For these reasons erythema alone responses were counted with the negatives. In some instances, however, data will be presented in which erythema without wheal are counted as positive responses (figures appearing in parentheses).
# [1] = penicillin reaction between 30 minutes and 24 hours post therapy (87 patients), erythema only counted as negative
# [2] = penicillin reaction between 30 minutes and 24 hours post therapy (87 patients), parentheses: erythema only (ambiguous) counted as positive
# [3] = penicillin reaction more than 24 hours post therapy (144 patients), erythema only counted as negative
# [4] = penicillin reaction more than 24 hours post therapy (144 patients), parentheses: erythema only (ambiguous) counted as positive
# [5] = penicillin reaction within 30 minutes post therapy (56 patients), erythema only counted as negative
# [6] = penicillin reaction within 30 minutes post therapy (56 patients), parentheses: erythema only (ambiguous) counted as positive
# [7] = reason for testing: "Penicillin" (240 tested)
# [8] = reason for testing: Other Substances (463 tested)
# [9] = reaction between 30 minutes and 24 hours post therapy, erythema only counted as negative
# [10] = reaction between 30 minutes and 24 hours post therapy, parentheses: erythema only (ambiguous) counted as positive
# [11] = reaction more than 24 hours post therapy, parentheses: erythema only (ambiguous) counted as positive
# [12] = reaction within 30 minutes post therapy, parentheses: erythema only (ambiguous) counted as positive
# [13] = type of hypersensitivity reaction: Skin (309 tested)
# [14] = type of hypersensitivity reaction: Visceral (43 tested)
substance,measurement,setting,value
penicilloyl-poly-L-lysine [PPL],"positive skin tests, patients positive/patients in group",immediate reacting group (within 30 minutes),26/56
same,"positive skin tests, percent of group","immediate reacting group (within 30 minutes), 56 patients",46% and 46.5%
same,percent of skin-test positive patients that would be missed if only this reagent were used as skin test antigen,immediate reactor group,16%
same,PL (+) PG (+) No.,[1],12
same,PL (+) PG (+) Percent,[1],13.8%
same,PPL (+) PG (-) No.,[1],9
same,PPL (+) PG (-) Percent,[1],10.4%
same,PPL (-) PG (+) No.,[1],5
same,PPL (-) PG (+) Percent,[1],5.7%
same,PPL (-) PG (-) No.,[1],61
same,PPL (-) PG (-) Percent,[1],70.0%
same,PL (+) PG (+) No.,[2],14
same,PL (+) PG (+) Percent,[2],16.1%
same,PPL (+) PG (-) No.,[2],10
same,PPL (+) PG (-) Percent,[2],11.5%
same,PPL (-) PG (+) No.,[2],7
same,PPL (-) PG (+) Percent,[2],8.0%
same,PPL (-) PG (-) No.,[2],56
same,PPL (-) PG (-) Percent,[2],64.4%
same,PL (+) PG (+) No.,[3],8
same,PL (+) PG (+) Percent,[3],5.6%
same,PPL (+) PG (-) No.,[3],16
same,PPL (+) PG (-) Percent,[3],11.1%
same,PPL (-) PG (+) No.,[3],9
same,PPL (-) PG (+) Percent,[3],6.2%
same,PPL (-) PG (-) No.,[3],111
same,PPL (-) PG (-) Percent,[3],77.1%
same,PL (+) PG (+) No.,[4],11
same,PL (+) PG (+) Percent,[4],7.6%
same,PPL (+) PG (-) No.,[4],22
same,PPL (+) PG (-) Percent,[4],15.3%
same,PPL (-) PG (+) No.,[4],11
same,PPL (-) PG (+) Percent,[4],7.6%
same,PPL (-) PG (-) No.,[4],100
same,PPL (-) PG (-) Percent,[4],69.4%
same,PL (+) PG (+) No.,[5],12
same,PL (+) PG (+) Percent,[5],21.4%
same,PPL (+) PG (-) No.,[5],14
same,PPL (+) PG (-) Percent,[5],25.0%
same,PPL (-) PG (+) No.,[5],5
same,PPL (-) PG (+) Percent,[5],8.9%
same,PPL (-) PG (-) No.,[5],25
same,PPL (-) PG (-) Percent,[5],44.6%
same,PL (+) PG (+) No.,[6],15
same,PL (+) PG (+) Percent,[6],26.8%
same,PPL (+) PG (-) No.,[6],16
same,PPL (+) PG (-) Percent,[6],28.6%
same,PPL (-) PG (+) No.,[6],5
same,PPL (-) PG (+) Percent,[6],8.9%
same,PPL (-) PG (-) No.,[6],20
same,PPL (-) PG (-) Percent,[6],35.7%
same,Skin Test (+) No.,[7],31
same,Skin Test (+) Percent,[7],12.9%
same,Skin Test (+) No.,[8],21
same,Skin Test (+) Percent,[8],4.5%
same,TOTAL (+) No.,[9],21
same,TOTAL (+) Percent of total positive,[9],80.8%
same,TOTAL (+) No.,[10],24
same,TOTAL (+) Percent of total positive,[10],77.4%
same,TOTAL (+) No.,"reaction more than 24 hours post therapy, erythema only counted as negative",24
same,TOTAL (+) No.,[11],33
same,TOTAL (+) Percent of total positive,[11],75.0%
same,TOTAL (+) No.,"reaction within 30 minutes post therapy, erythema only counted as negative",26
same,TOTAL (+) No.,[12],31
same,TOTAL (+) Percent of total positive,[12],86.1%
same,SKIN TEST RESPONSE No.,[13],66
same,SKIN TEST RESPONSE Percent,[13],21.4%
same,SKIN TEST RESPONSE No.,[14],10
same,SKIN TEST RESPONSE Percent,[14],23.3%
